Data published in patent US8188059B2, “Compounds and methods for modulating expression of GCGR” (Isis Pharmaceuticals, Inc., priority 2006, dated 2012).
Strand notation (5' to 3'): a small letter for the sugar, then the base; units joined by * are phosphorothioate-linked, units joined directly phosphodiester-linked; [ ] holds rarer units or linkages, { } end groups; capitals alone tell only the bases. e = 2'-O-(2-methoxyethyl) (MOE); [5mC] = 5-methylcytosine; d = 2'-deoxy (DNA)

Tests used:
DGAT2 mRNA = assay: Antisense inhibition of DGAT2 in A10 cells at 75 nM (Example 22, Table 81); assay type: cell-based, rat; settings: approximately 24 hours
Procedure: Short antisense compounds targeted to a DGAT2 nucleic acid were tested for their effects on DGAT2 mRNA in vitro. Cultured A10 cells in a 96-well plate were treated with 75 nM of short antisense compound. After a treatment period of approximately 24 hours, RNA was isolated from the cells and DGAT2 mRNA levels were measured by quantitative real-time PCR, as described herein. DGAT2 mRNA levels were adjusted according to total RNA content as measured by RIBOGREEN®. […]

rat DGAT2 mRNA [1] = assay: Dose-dependent inhibition of DGAT2 in A10 cells, 0.62-150 nM (Example 22, Table 83); assay type: cell-based
Procedure: Additional short antisense compounds targeted to DGAT2 mRNA were tested in vitro. A10 cells were prepared as described above and treated with 0.62, 1.85, 5.56, 16.67, 50.0, and 150.0 nM short antisense compounds to determine if DGAT2 inhibition occurs in a dose-dependent manner. DGAT2 mRNA was measured using quantitative real-time PCR, as described herein. […] Results are presented as percent inhibition of rat DGAT2, relative to untreated control cells.

mouse SGLT2 mRNA = assay: Mouse SGLT2 mRNA levels in kidney, additional 1-10-1 and 2-8-2 MOE gapmers, Balb/c mice (Example 15, Table 68); assay type: in vivo
Procedure: 1-10-1 and 2-8-2 MOE gapmer short antisense compounds were designed to target different regions of the mouse SGLT2 RNA but have complementarity across species. […] All cytidine residues are 5-methylcytidines.
The short antisense compounds were analyzed for their effect on mouse SGLT2 mRNA levels in vivo. Data was taken from three experiments in which male 6-week old Balb/c mice were dosed twice per week for three weeks with 0.5, 0.1, or 0.02 umol/kg of either a 1-10-1 or 2-8-2 MOE gapmer given by intraperitoneal injection. Mice were sacrificed 48 hours following last administration and evaluated for SGLT2 levels in kidney. Target levels were determined by RT, real-time PCR as described by other examples herein. PCR results were normalized to an internal ISIS control.

GCGR mRNA = GCGR mRNA levels in liver of C57/BL6 mice, single i.p. dose (Example 4, Tables 35-41); assay type: in vivo, mouse; settings: liver, single i.p. dose, 48 hours
Procedure: (§1) Eight-week old male C57/BL6 mice (Jackson Laboratory, Bar Harbor, Me.) were administered a single dose of GCGR oligonucleotide by intraperitoneal injection at a concentration of […]. Each dose group consisted of four animals. Shown in Table 31 are the sequences, motifs and conjugates of the GCGR antisense compounds used in this study. Bolded residues indicate 2′-O-methoxyethyl (2′-MOE) moieties. All compounds comprise phosphorothioate internucleoside linkages throughout and each cytosine is replaced with 5-methylcytosine. ISIS 386626, ISIS 386627 and ISIS 386628 further comprise a C16 conjugate group attached to the 2′-O position of the sugar via a diamide linkage (2′-OCH2C(═O)N(H)(CH2)4N(H)C(═O)—(CH2)15CH3). GCGR antisense compounds target published GCGR sequences, including Genbank® Accession No. BC031885.1 (SEQ ID NO: 7).
(§2) Mice were sacrificed 48 hours following injection to determine serum transaminase levels (Table 32); liver, white adipose tissue (WAT), spleen and kidney weight (Table 33); cholesterol, triglyceride and glucose levels (Table 34); GCGR mRNA levels (Tables 35-41); and full-length and total oligonucleotide concentration in liver and kidney (Table 42). Endpoints were assessed using methods described herein and well known to those of ordinary skill in the art. Data is included from a pre-treatment bleed (Pre-Bleed) and post-treatment bleed (Post-Bleed).
To determine whether the phenotypic changes shown above correlated with a decrease in GCGR mRNA, treated animals were evaluated for levels of target mRNA in liver by real time PCR according to methods described herein. Tables 35 to 41 show results from direct comparisons of the antisense compounds targeting GCGR nucleic acid for their effect on target expression. Results are expressed as percent of saline control.

[2] = Triglyceride, cholesterol and glucose levels, pre-bleed and post-bleed (Example 4, Table 34); assay type: in vivo, mouse; settings: C57/BL6 mice, single i.p. dose, 48 hours
Procedure: as §1, §2

rat DGAT2 mRNA [3] = assay: Dose-dependent inhibition of DGAT2 in A10 cells, 6.25-200 nM (Example 22, Table 82); assay type: cell-based
Procedure: Additional short antisense compounds targeted to DGAT2 mRNA were tested in vitro in a dose-response experiment. A10 cells were prepared as described above and treated with 6.25, 12.5, 25.0, 50.0, 100.0, and 200.0 nM short antisense compounds to determine if DGAT2 inhibition occurs in a dose-dependent manner. […] Results are presented as percent inhibition, relative to untreated control cells.

Substance | DGAT2 mRNA, % Control (DGAT2 mRNA) [%] | percent inhibition of rat DGAT2 (rat DGAT2 mRNA [1]; 0.62 nM) | percent inhibition of rat DGAT2 (rat DGAT2 mRNA [1]; 1.85 nM) | percent inhibition of rat DGAT2 (rat DGAT2 mRNA [1]; 5.56 nM) | percent inhibition of rat DGAT2 (rat DGAT2 mRNA [1]; 16.67 nM) | percent inhibition of rat DGAT2 (rat DGAT2 mRNA [1]; 50 nM) | percent inhibition of rat DGAT2 (rat DGAT2 mRNA [1]; 150 nM) | other results
372508 (antisense eA*eG*eT*dT*d[5mC]*d[5mC]*dT*dG*dG*dT*dG*dG*dT*e[5mC]*eA*eG) [compound 372508] | 35 | 0 | 0 | 6 | 14 | 39 | 71 | –
372546 (antisense eT*eT*eG*dG*dT*d[5mC]*dT*dT*dG*dT*dG*dA*dT*eT*eG*eT) [compound 372546] | 34 | 0 | 2 | 11 | 4 | 48 | 78 | –
ISIS 388627 (antisense eG*e[5mC]*dA*d[5mC]*dA*d[5mC]*dA*dG*d[5mC]*dT*eG*e[5mC]) | – | – | – | – | – | – | – | % change in SGLT2 expression relative to saline (mouse SGLT2 mRNA; 0.02 umol/kg i.p. twice per week for three weeks): −38%; % change in SGLT2 expression relative to saline (mouse SGLT2 mRNA; 0.1 umol/kg i.p. twice per week for three weeks): −50%; % change in SGLT2 expression relative to saline (mouse SGLT2 mRNA; 0.5 umol/kg i.p. twice per week for three weeks): −65%
372569 (antisense e[5mC]*eA*dT*dG*dA*dG*dG*dA*dT*dG*dA*d[5mC]*eA*e[5mC]) [compound 372569] | 104 | – | – | – | – | – | – | –
372524 (antisense eG*e[5mC]*e[5mC]*dA*dG*dG*d[5mC]*dA*dT*dG*dG*dA*dG*e[5mC]*eT*e[5mC]) [compound 372524] | 21 | 7 | 0 | 5 | 30 | 68 | 91 | –
372501 (antisense eT*eT*eG*dT*dG*dT*dG*dT*d[5mC]*dT*dT*d[5mC]*dA*e[5mC]*e[5mC]*eA) [compound 372501] | 28 | 1 | 5 | 10 | 11 | 25 | 68 | –
372500 (antisense eG*eT*eG*dT*dG*dT*d[5mC]*dT*dT*d[5mC]*dA*d[5mC]*d[5mC]*eA*eG*e[5mC]) [compound 372500] | 16 | 0 | 0 | 0 | 18 | 64 | 88 | –
ISIS 386626: GCGR 2-10-2 MOE gapmer with C16 conjugate group at the 2′-O position via a diamide linkage (antisense GCTTCTCCATCATA; chemistry not fully specified) | – | – | – | – | – | – | – | GCGR mRNA expression (GCGR mRNA): greatest decrease; post-bleed glucose levels [2]: decreased in a dose-dependent manner
372580 (antisense eG*eG*dT*dT*dG*dT*dG*dT*dG*dT*d[5mC]*dT*eT*e[5mC]) [compound 372580] | 48 | 0 | 5 | 5 | 3 | 16 | 42 | –
372594 (antisense eA*e[5mC]*dA*dG*dA*dA*dG*dG*d[5mC]*dA*d[5mC]*d[5mC]*e[5mC]*eA) [compound 372594] | 77 | 0 | 0 | 0 | 0 | 2 | 15 | –
372568 (antisense eG*eA*d[5mC]*dA*d[5mC]*dT*dG*d[5mC]*dA*dG*dG*d[5mC]*e[5mC]*eA) [compound 372568] | – | – | – | – | – | – | – | percent inhibition of DGAT2 (rat DGAT2 mRNA [3]; 6.25 nM): 0; percent inhibition of DGAT2 (rat DGAT2 mRNA [3]; 12.5 nM): 0; percent inhibition of DGAT2 (rat DGAT2 mRNA [3]; 50.0 nM): 26; percent inhibition of DGAT2 (rat DGAT2 mRNA [3]; 100.0 nM): 72; percent inhibition of DGAT2 (rat DGAT2 mRNA [3]; 200.0 nM): 69; percent inhibition of DGAT2 (rat DGAT2 mRNA [3]; […]): 15
372516 (antisense eT*eA*e[5mC]*dA*dG*dA*dA*dG*dG*d[5mC]*dA*d[5mC]*d[5mC]*e[5mC]*eA*eG) [compound 372516] | 27 | 1 | 10 | 0 | 4 | 35 | 81 | –
372503 (antisense eG*e[5mC]*eA*dG*dG*dT*dT*dG*dT*dG*dT*dG*dT*e[5mC]*eT*eT) [compound 372503] | 35 | 7 | 10 | 4 | 25 | 54 | 80 | –
372491 (antisense eA*e[5mC]*eA*dT*dG*dA*dG*dG*dA*dT*dG*dA*d[5mC]*eA*e[5mC]*eT) [compound 372491] | 80 | – | – | – | – | – | – | –
372578 (antisense eT*eG*dT*dG*dT*d[5mC]*dT*dT*d[5mC]*dA*d[5mC]*d[5mC]*eA*eG) [compound 372578] | 59 | 0 | 0 | 0 | 2 | 7 | 42 | –
372563 (antisense eA*eG*d[5mC]*d[5mC]*dA*dG*dG*dT*dG*dA*d[5mC]*dA*eG*eA) [compound 372563] | 48 | 0 | 0 | 0 | 1 | 4 | 46 | –
372624 (antisense eT*eG*dG*dT*d[5mC]*dT*dT*dG*dT*dG*dA*dT*eT*eG) [compound 372624] | 56 | 0 | 0 | 0 | 1 | 16 | 38 | –
372530 (antisense eT*e[5mC]*eG*dG*d[5mC]*d[5mC]*d[5mC]*d[5mC]*dA*dG*dG*dA*dG*e[5mC]*e[5mC]*e[5mC]) [compound 372530] | 35 | 0 | 2 | 0 | 10 | 38 | 78 | –
372562 (antisense eG*eT*d[5mC]*dT*dT*dG*dG*dA*dG*dG*dG*d[5mC]*e[5mC]*eG) [compound 372562] | – | – | – | – | – | – | – | percent inhibition of DGAT2 (rat DGAT2 mRNA [3]; 6.25 nM): 0; percent inhibition of DGAT2 (rat DGAT2 mRNA [3]; 12.5 nM): 0; percent inhibition of DGAT2 (rat DGAT2 mRNA [3]; 50.0 nM): 36; percent inhibition of DGAT2 (rat DGAT2 mRNA [3]; 100.0 nM): 48; percent inhibition of DGAT2 (rat DGAT2 mRNA [3]; 200.0 nM): 75; percent inhibition of DGAT2 (rat DGAT2 mRNA [3]; […]): 0
